{
  "source": "patent US20140134283A1",
  "about": "“Compositions and Methods for Affecting Mental State and Body Composition” (USPLABS. LLC, priority 2012, published 2014)",
  "key": {"[1]": {"system": "human subjects", "assay": "Human study, six adult males ingesting 200-800 mg aegeline per day: effects reported by subjects", "type": "in vivo", "description": "In a separate study, the compound aegeline was orally administered to six human subjects. The volunteer subjects were all non-smoking males between the ages of 24-36."}, "[2]": {"system": "human subjects", "assay": "Initial human study, two male subjects ingesting aegeline for 12-18 weeks, reported effects", "type": "in vivo", "settings": "for libido: male volunteers"}},
  "note": "“Also recorded” adds a separate entry of the source.",
  "data": [
    {"smiles": "COc1ccc(C(O)CNC(=O)/C=C/c2ccccc2)cc1", "note": "(stereo not shown) [aegeline, N-[2-hydroxy-2(4-methoxyphenyl)ethyl]-3-phenyl-2-propenamide]", "values": [
      {"measurement": "anabolic effects", "setting": "[1]; 200 mg per day", "value": "became apparent after extended use"},
      {"measurement": "thermogenic effect", "setting": "[1]; 200 mg per day", "value": "very apparent"},
      {"measurement": "time of daily administration until anabolic effects became apparent", "setting": "[1]; 200 mg per day", "value": "around 7 days"},
      {"measurement": "libido", "setting": "[1]; 400 mg per day", "value": "very apparent and prolonged increase"},
      {"measurement": "effect on libido", "setting": "[1]; daily dose of 200 mg", "value": "further increased"},
      {"measurement": "effects on mental stamina, energy level, focus, and mood", "setting": "[1]; daily dose of 200 mg", "value": "very apparent"},
      {"measurement": "anabolic effects", "setting": "[1]; daily dose of 400 mg", "value": "immediately apparent"},
      {"measurement": "dose-dependency of effects on mental stamina, energy level, focus, and mood", "setting": "[1]; doses above 400 mg per day", "value": "not readily observed"},
      {"measurement": "physical performance for exercise and strength training activities", "setting": "[1]; one subject, daily dose of 800 mg", "value": "improved physical performance"},
      {"measurement": "effect on thermogenesis", "setting": "[2]; daily dose of 80 mg", "value": "without a very noticeable effect; also recorded: not very noticeable"},
      {"measurement": "mental stamina, focus, and mood", "setting": "[2]; daily dose of 80 mg", "value": "effective to increase or improve"},
      {"measurement": "duration of effects on mental stamina, focus, and mood after effect onset", "setting": "[2]; daily dose of 120 mg", "value": "8 to 10", "unit": "h"},
      {"measurement": "mental stamina, focus, and mood", "setting": "[2]; daily dose of 120 mg", "value": "further increased or improved"},
      {"measurement": "thermogenic effect", "setting": "[2]; daily dose of 120 mg", "value": "noticeable but not very apparent; also recorded: noticeable"},
      {"measurement": "mental stamina, focus, energy level, mood and thermogenesis", "setting": "[2]; dose increase to 150-180 mg", "value": "further enhanced or increased"},
      {"measurement": "libido", "setting": "[2]; daily dose of 150 mg", "value": "increased libido; also recorded: effective to increase libido"},
      {"measurement": "libido", "setting": "[2]; daily doses lower than 150 mg", "value": "not at the lower daily doses"},
      {"measurement": "reported effects", "setting": "[2]; two male subjects, 20-60 mg per day", "value": "no immediate apparent effects"},
      {"measurement": "mental stamina, focus and concentration, energy level, and mood", "setting": "[2]; two male subjects, 80-150 mg per day", "value": "increased or improved"}
    ]}
  ]
}
